“Also recorded” adds a separate entry of the source.
Assays:
[1] = biological target: T1, ASK1 (Homo sapiens, UniProt Q99683); assay: ASK1 Alphascreen biochemical assay
T1 sequence (Q99683 1-1374): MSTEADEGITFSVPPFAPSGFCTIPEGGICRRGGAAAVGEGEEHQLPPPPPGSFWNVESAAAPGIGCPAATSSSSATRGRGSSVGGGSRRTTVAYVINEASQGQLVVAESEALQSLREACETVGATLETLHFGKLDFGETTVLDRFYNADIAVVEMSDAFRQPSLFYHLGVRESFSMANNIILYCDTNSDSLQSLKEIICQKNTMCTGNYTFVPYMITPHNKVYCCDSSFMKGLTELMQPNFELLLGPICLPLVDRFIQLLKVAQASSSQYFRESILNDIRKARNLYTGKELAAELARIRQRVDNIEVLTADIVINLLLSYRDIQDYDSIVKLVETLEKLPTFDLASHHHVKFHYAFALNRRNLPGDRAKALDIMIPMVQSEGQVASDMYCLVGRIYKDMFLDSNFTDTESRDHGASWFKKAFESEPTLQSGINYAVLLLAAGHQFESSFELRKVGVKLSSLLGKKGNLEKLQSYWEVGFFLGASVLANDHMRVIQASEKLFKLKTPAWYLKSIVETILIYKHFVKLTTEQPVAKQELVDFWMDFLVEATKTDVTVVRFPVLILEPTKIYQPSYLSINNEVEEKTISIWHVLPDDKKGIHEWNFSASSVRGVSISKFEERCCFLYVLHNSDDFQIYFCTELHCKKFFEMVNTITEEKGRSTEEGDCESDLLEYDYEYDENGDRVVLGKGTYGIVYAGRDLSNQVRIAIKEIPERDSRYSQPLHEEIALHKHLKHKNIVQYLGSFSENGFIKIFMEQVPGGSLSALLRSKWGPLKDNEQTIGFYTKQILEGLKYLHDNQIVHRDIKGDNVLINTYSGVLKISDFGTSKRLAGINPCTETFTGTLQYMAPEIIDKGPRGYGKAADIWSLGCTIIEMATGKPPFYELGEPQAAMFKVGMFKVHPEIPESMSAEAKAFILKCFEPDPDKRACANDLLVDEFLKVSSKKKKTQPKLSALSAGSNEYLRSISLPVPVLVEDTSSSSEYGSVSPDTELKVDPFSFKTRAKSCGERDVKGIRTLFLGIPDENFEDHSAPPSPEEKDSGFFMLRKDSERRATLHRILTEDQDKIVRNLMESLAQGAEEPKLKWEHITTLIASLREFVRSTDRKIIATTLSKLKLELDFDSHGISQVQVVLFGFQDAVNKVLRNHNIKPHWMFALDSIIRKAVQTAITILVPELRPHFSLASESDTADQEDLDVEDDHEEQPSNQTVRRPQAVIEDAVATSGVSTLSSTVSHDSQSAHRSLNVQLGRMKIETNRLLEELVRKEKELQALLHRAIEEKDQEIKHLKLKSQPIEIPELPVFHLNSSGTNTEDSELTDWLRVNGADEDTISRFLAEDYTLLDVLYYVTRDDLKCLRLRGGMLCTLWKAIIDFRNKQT

[2] = system: INS-1e cell line; assay: TNFα-induced phosphorylation of endogenous MKK6 at Ser207, immunoblot; format: cell-based; conditions: rat INS-1e cells
[3] = biological target: CYP3A4 (Homo sapiens, UniProt P08684); assay: Cytochrome P450 inhibition assay 3A4; format: in vitro ADME
Chain of CYP3A4 (P08684 whole entry): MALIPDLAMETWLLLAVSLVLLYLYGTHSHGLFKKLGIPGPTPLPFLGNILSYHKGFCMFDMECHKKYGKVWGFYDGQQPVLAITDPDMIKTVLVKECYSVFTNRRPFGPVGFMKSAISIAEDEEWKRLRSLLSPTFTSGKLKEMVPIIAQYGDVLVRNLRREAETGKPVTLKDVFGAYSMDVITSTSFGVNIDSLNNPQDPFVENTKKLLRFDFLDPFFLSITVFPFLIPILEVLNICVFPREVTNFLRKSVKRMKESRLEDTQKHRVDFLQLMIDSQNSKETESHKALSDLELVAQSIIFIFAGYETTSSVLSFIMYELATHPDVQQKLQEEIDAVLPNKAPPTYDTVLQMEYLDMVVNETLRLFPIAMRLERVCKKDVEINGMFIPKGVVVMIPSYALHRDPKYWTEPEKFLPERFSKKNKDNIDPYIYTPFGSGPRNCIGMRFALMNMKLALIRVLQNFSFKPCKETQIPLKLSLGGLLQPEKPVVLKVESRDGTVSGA

[4] = biological target: CYP2C9 (Homo sapiens, UniProt P11712); assay: Cytochrome P450 inhibition assay 2C9; format: in vitro ADME
Chain of CYP2C9 (P11712 whole entry): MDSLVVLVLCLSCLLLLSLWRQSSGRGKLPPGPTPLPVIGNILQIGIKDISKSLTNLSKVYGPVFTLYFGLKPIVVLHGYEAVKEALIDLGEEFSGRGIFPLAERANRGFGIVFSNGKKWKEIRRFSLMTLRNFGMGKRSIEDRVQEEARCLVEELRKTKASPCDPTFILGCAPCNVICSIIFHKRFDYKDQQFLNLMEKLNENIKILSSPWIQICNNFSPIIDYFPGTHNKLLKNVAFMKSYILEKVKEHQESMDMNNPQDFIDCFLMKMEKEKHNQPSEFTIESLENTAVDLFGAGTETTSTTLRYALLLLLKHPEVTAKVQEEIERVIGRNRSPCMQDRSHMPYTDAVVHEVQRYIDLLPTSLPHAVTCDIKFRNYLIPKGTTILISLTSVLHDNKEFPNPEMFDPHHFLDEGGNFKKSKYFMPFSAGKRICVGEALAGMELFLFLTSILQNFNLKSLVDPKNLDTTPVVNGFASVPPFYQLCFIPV

[5] = biological target: T1, ASK1; assay: Enzyme kinetic study, Lineweaver-Burk plot at six ATP concentrations; format: biochemical; conditions: with or without compound

inhibition at 10 µM [3] | inhibition at 10 µM [4] | SMILES | ASK1 inhibitory activity (in words) [1] | other results
< 20% | < 20% | CC(=O)Nc1cccc(Nc2ncc3ccccc3n2)c1 [Compound 12] | submicromolar inhibitory activities against ASK1 | TNFα-induced MKK6 ser207 phosphorylation [2]: protects against TNFα-induced MKK6^ser207 phosphorylation; also recorded: reduction of p-MKK6^ser207; fold improvement in potency in comparison to quinazoline 9 ([1]; 12 versus 9): > 10 fold; mode of ASK1 inhibition [5]: ATP competitive
> 85% | > 85% | CC(=O)Nc1cccc(Nc2ncc3cc(-c4cn[nH]c4)ccc3n2)c1 [Compound 23] | submicromolar inhibitory activities against ASK1 | –

Second part, the compound before the results:

SMILES | inhibition at 10 µM [3] | inhibition at 10 µM [4] | ASK1 inhibitory activity (in words) [1] | other results
CN(C)c1cccc(Nc2nccc(NCCOc3ccccc3)n2)c1 [Compound 3] | – | – | – | fold less active as an ASK1 inhibitor compared to 1 ([1]; 3 versus 1): approximately 250 fold
CC(C)(C)C(=O)N(c1ccccc1)c1cccc(Nc2ncc3cc(-c4cn[nH]c4)ccc3n2)c1 [Compound 28] | – | – | did not show improvement in ASK1 activity | –
Cn1cc(-c2ccc3nc(Nc4cccc(N(C(=O)C(C)(C)C)c5ccccc5)c4)ncc3c2)cn1 [Compound 29] | – | – | did not show improvement in ASK1 activity | –

Source: publication PMC5999544 (Bioorganic & medicinal chemistry letters, 2017)
